We go through ten molecules from patent publication US6495356B1, “Beryllofluoride analogues of acyl phosphate polypeptides” (priority 1999, dated 2002).

A value given as a limit tells only on which side of the number the result lay.

Assay [1] has as its target T1, phosphoserine phosphatase (PSP) (Methanocaldococcus jannaschii, UniProt Q58989).
T1 construct: made in house
Put plainly: Inhibition of hydrolytic activity of PSP. Format: biochemical, Methanococcus jannaschii. As to conditions: for Effect of single component on PSP activity: NaF alone or BeCl2 alone; for Inhibition of hydrolytic activity of PSP: analog generated in situ (NaF plus BeCl2 or AlCl3).

Assay [2] concerns the target T2, NtrC^WT (Salmonella typhimurium, UniProt P41789, C30V/C364A).
T2 construct: made in house
It counts as biochemical. As to conditions: for Stimulation of the ATPase activity of NtrC^WT: BeCl2 200 μM, AlCl3 200 μM, NaF 5 mM, VO4^3− 1 mM, compared with carbamoyl phosphate 10 mM. On the procedure: NtrC proteins. […] All full-length NtrC proteins (dimer concentration) were maltose binding protein fusions to NtrC lacking its two natural cysteines (MBP-NtrC^C30V,C364A) or its derivatives.
Assays. […] Mol. Biol. 249, 700-713). Prior to addition of ATP, other components were incubated for 30 min at 25° C. together with the indicated small molecule or combination of small molecules (carbamoyl phosphate, 10 mM; BeCl2, 200 μM; AlCl3, 200 μM; NaF, 5 mM; VO4^3−, 1 mM). The response of the ATPase activity of NtrC to the concentration of NaF or BeCl2 was assessed essentially as above, except the reaction time was 10 min.

Another assay deals with T3, NtrC^D86N,S160F (Salmonella typhimurium, UniProt P41789, C30V/C364A/D86N/S160F).
T3 construct: made in house
Format: biochemical. The conditions noted are these: for Effect of single component on ATPase activity of NtrC^D86N,S160F: trace amounts of BeCl2 alone, high concentrations of NaF in absence of BeCl2.

Assay [3] relates to control region for the fdnG operon. The assay can be described thus: DNase I footprinting of NarL DNA-binding. Details: species or system E. coli.
The target of assay [4] is T2, NtrC^WT. The assay can be described thus: Formation of open complexes, single-cycle transcription assay. It counts as biochemical. As to conditions: ≦100 μM BeFx vs 10 mM carbamoyl phosphate. The protocol: Formation of open complexes was assessed in a single-cycle transcription assay on a supercoiled plasmid template pJES534 (1 nM) (Porter et al. (1993) Genes Dev. 7, 2258-2273; Flashner et al. (1995) J. Mol. Biol. 249, 700-713). NtrC was incubated with 100 μM BeCl2 plus 10 mM NaF or 10 mM carbamoyl phosphate, respectively, at 37° C. for 10 min prior to initiation of the reaction with ATP.
(§1) Transcriptional activation of NtrC was assessed as described in Flashner et al. (1995) J. Mol. Biol. 249, 700-713. DNA-binding of OmpR was assessed as described in Huang and Igo (1996) J. Mol. Biol. 262, 615-628. DNA-binding of NarL was assessed as described in Li et al. (1994) J. Mol. Biol. 241, 150-165 and Darwin et al. (1997) Mol. Microbiol 25, 583-595.

The test system of assay [5] is mutant forms of NtrC in which D54 has been replaced by A or N. The assay can be described thus: ATPase activity of NtrC D54 mutants. Format: biochemical, Salmonella typhimurium. As to conditions: data not shown.
The target in the next assay is T4, NtrC^D86C,Fe (Salmonella typhimurium, UniProt P41789, C30V/C364A/D86C).
T4 construct: made in house
The assay can be described thus: Fe-mediated cleavage of NtrC^D86C,Fe. The conditions noted are these: BeCl2 200 μM, NaF 10 mM; divalent cation required. Format: biochemical. The protocol: Fe-mediated cleavage of NtrC was assessed as follows: NtrC (5 to 10 μM) was incubated for 30 min at 25° C. with the indicated small molecule or combination of small molecules (carbamoyl phosphate, 10 mM; BeCl2, 200 μM; NaF, 10 mM) in cleavage buffer (10 mM MOPS, pH 8.0, 50 mM KCl, 8 mM MgCl2, 5% glycerol, 1 mM EDTA). Then cleavage was initiated by adding H2O2 and sodium ascorbate to final concentrations of 50 mM and samples were subjected to analysis by SDS-PAGE as described (Greiner etal. (1997) Bioconjugate Chem. 8, 44-48).
We have two direct lines of evidence that BeFx mimics effects of phosphorylation of NtrC structurally as well as functionally. […] Rearrangement at the dimer interface of P-NtrC is postulated to drive the formation of active oligomers. […] By contrast, the BeFx-dependent cleavage did require a divalent cation, and either Mg^2+ or Mn^2+ could serve (FIG. 3B). Thus, like phosphorylation (Parkinson and Kofoid (1992) Annu. Rev. Genet. 26, 71-112; Stock et al. (1995) in Two-component signal transduction, eds. Hoch and Silhavy (ASM, Washington, D.C.), pp. 25-51; Lukat et al. (1992) Proc. Natl. Acad. Sci. USA 89, 718-722; Feng et al. (1992) J. Bacteriol. 174, 6061-6070), the interaction between BeFx and D54 of NtrC requires a divalent cation. […]

Assay [6] deals with FliM peptide (residues 1-16). Put plainly: FliM peptide binding of CheY (tryptophan fluorescence quenching). As to conditions: CheY 10 μM; ± 2 mM BeCl2, 20 mM NaF, 20 mM MgCl2; read-out: Dissociation constant for binding to the FliM peptide. Further details: species or system E. coli. The protocol:
FliM peptide binding of CheY was assessed as described in McEvoy et al. (1999) J. Mol. Biol. 289, 1423-1433. Fluorescence intensity of CheY (10 μM) at 340 nm was measured as a function of added FliM peptide in the absence or presence of 2 mM BeCl2, 20 mM NaF and 20 mM MgCl2.
There is no direct in vitro assay for the activity of P-CheY in reversing the direction of flagellar rotation. […] The strength of this binding, which was assessed by quenching of the intrinsic tryptophan fluorescence of CheY, was recently reported to be phosphorylation-dependent (McEvoy et al. (1999) J. Mol. Biol. 289, 1423-1433). […] By this criterion, BeFx.CheY is as active as P-CheY. Like BeFx.CheY, a phosphonate derivative of CheY^D57C appears to be a biochemical analogue of P-CheY, but it is difficult to prepare (Halkides et al. (1998) Biochemistry 37, 13674-13680). Such analogues are extremely useful because the acyl phosphate linkage of P-CheY is exceptionally labile (half life of seconds) (Parkinson and Kofoid (1992) Annu. Rev. Genet. 26, 71-112; Stock et al. (1995) in Two-component signal transduction, eds. Hoch and Silhavy (ASM, Washington, D.C.), pp. 25-51).

Assay [7] concerns ompF promoter-regulatory region. Put plainly: DNase I footprinting of OmpR binding. Details: species or system E. coli. As to conditions: compared with P-OmpR (EnvZ or acetyl phosphate); NaF 10 mM, BeCl2 100 μM. On the procedure:
Binding of BeFx.OmpR to the ompF promoter-regulatory region was assessed by DNase I footprinting as described in Huang and Igo (1996) J. Mol. Biol. 262, 615-628 and was compared to that of P-OmpR. The concentrations of OmpR were: 6.4 μM (lanes 1, 6, 11 and 16); 1.6 μM (lanes 2, 7, 12 and 17); 0.4 μM (lanes 3, 8, 13 and 18); 0.1 μM (lanes, 4, 9, 14 and 19); and 0 μM (lanes 5, 10, 15 and 20). For samples in lanes 6-10, OmpR was phosphorylated by MBP-EnvZ (0.3 μM) as described (Huang and Igo (1996) J. Mol. Biol. 262, 615-628). For samples in lanes 11-20, NaF (10 mM) was present and for those in lanes 16-20, BeCl2 (100 μM) was also present. Non-specific DNA-binding observed in the presence of BeCl2 and NaF in lanes 16 and 17 was not observed when OmpR was phosphorylated by EnvZ (lanes 6 and 7) unless much higher concentrations of OmpR were used (see FIG. 4).
as §1

In the case of `[Be+2].[Cl-].[Cl-]` [BeCl2], the “Effect of single component on PSP activity” value in assay [1] is reported as “Neither alone had such a profound effect”. The “BeCl2 concentration at which inhibition of ATPase activity occurred” value at NtrC^WT [2] (5 mM NaF) was ≥ 200 µM. Moreover, on NtrC^WT [2] (5 mM NaF, NtrC^WT 0.4 μM dimer), the “BeCl2 concentration at which ATPase activity was detected (lowest tested)” value was 5 µM and the “BeCl2 concentration giving highest ATPase activity” value was found to be 100 µM. The “Effect of single component on ATPase activity of NtrC^D86N,S160F” value on NtrC^D86N,S160F is reported as “inhibited”.

Turning to `[F-].[Na+]` [NaF], the “Effect of single component on PSP activity” value in assay [1] was “Neither alone had such a profound effect”. Also, at NtrC^WT [2] (50 μM BeCl2), the “NaF concentration at which inhibition of ATPase activity occurred” value was ≥ 50 mM and the “NaF concentration below which no ATPase activity was observed” value stood at 1 mM. In addition, on NtrC^D86N,S160F, the “Effect of single component on ATPase activity of NtrC^D86N,S160F” value is listed as “inhibited”.

As to `[O]=[V]([O-])([O-])[O-]` [VO4^3−, orthovanadate], the “Inhibition of hydrolytic activity of PSP” value in [1] is listed as “observed to inhibit PSP activity”. Further, at NtrC^WT [2], the “Stimulation of the ATPase activity of NtrC^WT” value (“Stimulation … of NtrC^WT” below) is “neither AlFx nor VO4^3− could substitute”.

On to ADP.BeFx, for which, on NtrC^D86N,S160F (ADP complexes of phosphate analogs), the “Inhibition of the ATPase activity of NtrC^D86N,S160F” value was “neither ADP.BeFx nor ADP.AlFx nor ADP.VO4^3− appeared to inhibit”.

As for “BeFx.NarL: beryllofluoride complex of E. coli response regulator NarL”, the “Activity relative to P-NarL” value in assay [3] (200 μM BeCl2, 10 mM NaF and 5 mM MgCl2) is on record as “less active”. Besides, in [3] (compared with P-NarL, data not shown), the “Binding to the control region for the fdnG operon” value was “bound similarly”.

Regarding aluminofluoride [AlFx], the “Inhibition of hydrolytic activity of PSP” value in assay [1] is “can substitute for BeF3^− to inhibit PSP activity”. In addition, the “Stimulation … of NtrC^WT” value on NtrC^WT [2] is on record as “neither AlFx nor VO4^3− could substitute”. In addition, the “Stimulation of the ATPase activity of unphosphorylated NtrC^D86N,S160F” value at NtrC^D86N,S160F was “but not Alfx”.

As to beryllofluoride [BeFx], the “Activation of transcription by σ54-holoenzyme (open complexes)” value on NtrC^WT [4] is given as “at least as great as that of the phosphorylated protein”. The “Inhibition of PSP activity at different temperatures” value in [1] (70° C. or room temperature, data not shown) was “similarly inhibited”. In assay [1], the “Inhibition of hydrolytic activity of PSP” value was “significantly inhibited”. In addition, the “Stimulation of ATPase activity of D54A / D54N NtrC” value in assay [5] is “failure of BeFx to stimulate”. Also, at NtrC^WT [2], the “Stimulation … of NtrC^WT” value was “as effective as carbamoyl phosphate”. For the same molecule, the “Phosphorylation-dependent Fe-mediated cleavage” value on NtrC^D86C,Fe is recorded as “yields an otherwise phosphorylation-dependent cleavage”. Also, the “Stimulation of the ATPase activity of unphosphorylated NtrC^D86N,S160F” value on NtrC^D86N,S160F is “substantially stimulated”.

B1: BeFx.CheY: beryllofluoride acyl phosphate analogue of E. coli response regulator CheY (protein, UniProt P0AE67 2-129, looked up)
Chemotaxis protein CheY: ADKELKFLVVDDFSTMRRIVRNLLKELGFNNVEEAEDGVDALNKLQAGGYGFVISDWNMPNMDGLELLKTIRADGAMSALPVLMVTAEAKKENIIAAAQAGASGYVVKPFTAATLEEKLNKIFEKLGM
modifications: beryllofluoride complex
As for B1, the Kd in [6] was found to be 26 µM.

B2: CheY: E. coli CheY, central regulator of the chemotactic response, unmodified inactive form (protein, UniProt P0AE67 2-129, looked up)
Chemotaxis protein CheY: ADKELKFLVVDDFSTMRRIVRNLLKELGFNNVEEAEDGVDALNKLQAGGYGFVISDWNMPNMDGLELLKTIRADGAMSALPVLMVTAEAKKENIIAAAQAGASGYVVKPFTAATLEEKLNKIFEKLGM
In the case of B2, the Kd in [6] amounted to 500 µM.

B3: BeFx.OmpR: beryllofluoride complex of E. coli response regulator OmpR (protein, UniProt P0AA16 1-239, looked up)
DNA-binding dual …: MQENYKILVVDDDMRLRALLERYLTEQGFQVRSVANAEQMDRLLTRESFHLMVLDLMLPGEDGLSICRRLRSQSNPMPIIMVTAKGEEVDRIVGLEIGADDYIPKPFNPRELLARIRAVLRRQANELPGAPSQEEAVIAFGKFKLNLGTREMFREDEPMPLTSGEFAVLKALVSHPREPLSRDKLMNLARGREYSAMERSIDVQISRLRRMVEEDPAHPRYIQTVWGLGYVFVPDGSKA
modifications: beryllofluoride complex
Turning to B3, the “Binding to regulatory region upstream of the ompF promoter” value in [7] was “better than P-OmpR”.
